Biological target: T1, Phospholipase A2, membrane associated (Homo sapiens) (UniProt P14555)
T1 sequence (whole entry): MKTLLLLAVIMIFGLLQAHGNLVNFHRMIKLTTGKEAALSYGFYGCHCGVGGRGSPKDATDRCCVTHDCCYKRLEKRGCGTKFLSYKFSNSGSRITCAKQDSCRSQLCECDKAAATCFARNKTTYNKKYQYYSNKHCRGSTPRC
Experiment: Inhibitory activity against human synovial fluid phospholipase A2 (HSF-PLA2).
Set-up: concentration or dose not given beside the values
Conditions: concentration not given here

Row | SMILES | inhibition
1 | CCCCCCCCCCS(=O)(=O)NC(CCCCCC)COP(=O)(O)OCCCC (stereo not given) | 0%
2 | CCCCCCCCCCS(=O)(=O)N[C@@H](CCCCCC)COP(=O)(O)OCCO | 40%
3 | CCCCCCCCCCS(=O)(=O)N[C@H](CCCCCC)COP(=O)(O)OCCOCc1ccccc1 | 78%
4 | CCCCCCCCCCS(=O)(=O)N[C@H](CCCCCC)COP(=O)(O)OCCO (stereo in doubt; form 2) | 45%
5 | CCCCCCCCCCCC(=O)NC(CCCCCC)COP(=O)(O)OCCO (stereo not given) | 65%
6 | CCCCCCCCCCS(=O)(=O)N[C@H](CCCCCC)COP(=O)(O)OCCO (stereo in doubt; form 1) | 44%
7 | CCCCCCCCCCC(=O)NC(CCCCCC)COP(=O)(O)OCCNCc1ccccc1 (stereo not given) | 28%
8 | CCCCCCCCCCS(=O)(=O)CC(CCCCCC)COP(=O)(O)OCCO (stereo not given) | 29%
9 | CCCCCCCCCCS(=O)(=O)NC(CCCCCC)COP(=O)(O)OCCO (stereo not given) | 36%
10 | CCCCCCCCCCS(=O)(=O)NC(CCCCCC)COCC(F)(F)F (stereo not given) | 0%

Reference: ChEMBL document CHEMBL1129986, “Reliability of comparative molecular field analysis models: effects of data scaling and variable selection using a set of human synovial fluid phospholipase A2 inhibitors” (J Med Chem, 1997)
